Assay results from patent US20230292755A1, “USE OF A GLYCINE BETAINE DERIVATIVE AS A PEDICULICIDAL AGENT” (priority 2020, published 2023).

Test system: lice (Pediculus humanus capitis)
Assay: Efficacy test: aqueous solutions sprayed into boxes of lice, percentage of mortality evaluated (ECHA guidance)
Format: in vivo
Conditions: sprayed aqueous solution at 3% by weight of dry matter; for Mortality rate (%): mean of 4 boxes of 25 lice
Procedure: The surfactant compositions prepared as described in examples 1 and 2 above were tested following the recommendations of the ECHA relating to the evaluation of the efficacy of biocidal products (Guidance on the Biocidal Products Regulation Volume II Efficacy—Assessment and Evaluation (Parts B+C), Version 3.0 April 2018).
These compositions were thus each sprayed, in the form of aqueous solutions at 3% by weight of dry matter, into 4 boxes each including 25 lice (Pediculus humanus capitis), then the percentage of mortality was evaluated after 5, 10 and 15 min. The mean of the results obtained in the 4 boxes was calculated.
The test presented in example 3 was reproduced using one and the same concentration of different cationic surfactants instead of the glycine betaine derivatives according to the invention.

Compound | Mortality rate (%) (after 5 min) | Mortality rate (%) (after 10 min) | Mortality rate (%) (after 15 min) | time required to eliminate 100% of the lice
CCCCCCCCCCCC[N+](C)(C)C.[Cl-] [Dodecyltrimethylammonium chloride] | 49% | 78% | 91% | 30 min
Benzalkonium chloride | 70% | 80% | 82% | 60 min
CCCCCCCCCCCCCCCC[N+](C)(C)C.[Cl-] [Cetrimonium chloride] | 79% | 94% | 100% | 
